Here are results for two compounds from patent US9050341B2, “Methods of treating drug resistant and other tumors by administering 6,7-dialkoxy quinazoline derivatives” (NATCO PHARMA LIMITED, priority 2009, dated 2015).

Structures are written as SMILES.

The subject of series [1] is Salmonella typhimurium (TA 98, TA 100, TA 102, TA 1535 and TA 1537). The experiment in a line: Ames bacterial reverse mutation assay. The settings on record: five tester strains, with or without S9. Here is the method:
The present study was conducted by the direct plate incorporation method with five tester strains of Salmonella typhimurium (TA 98, TA 100, TA 102, TA 1535 and TA 1537). […] Simultaneously, negative control cultures received DMSO and the respective positive controls received the mutagens 2-Amino anthracene, 2-Nitrofluorene, Sodium azide, 9-Aminoacridine and Mitomycin C (Sigma, St. Louis). In order to study the role of metabolic activation, cultures were incubated both with and without S9 mixture. The induction of Histidine positive colonies was computed and results were statistically treated for comparison.

Series [2] in a line: Respiratory function, whole body plethysmograph. It counts as in vivo. Particulars: conscious male Wistar rats, 75, 125 and 250 mg/kg oral, 3 hours. On the procedure: This study evaluated the effect of NRC-2694A monohydrochloride on respiratory function in conscious Wistar rats following administration of a single dose using a whole body plethysmograph. The study was conducted in accordance with “S7A Safety Pharmacology Studies for Human Pharmaceuticals, ICH” issued July 2001. The study used a parallel design with one vehicle and three test item treated groups. […] Male Wistar rats were placed in plethysmography chambers and baseline respiratory parameters were recorded for 30 minutes. Following drug administration respiratory parameters were recorded continuously for 3 hours.

Series [3] is described as follows: Cardiovascular parameters in telemetered dogs. It counts as in vivo, Beagle dogs. Particulars: for cardiovascular parameters (blood pressure, pulse pressure, heart rate, QT and QTcf intervals): telemetered male Beagle dogs, 15, 30 and 60 mg/kg b.wt. oral. On the procedure:
The study was conducted in accordance with ICH “S7A Safety Pharmacology Studies for Human Pharmaceuticals, Note for Guidance on Safety Pharmacology Studies for Human Pharmaceuticals, July 2001”. The doses tested were 0, 15, 30 and 60 mg/kg b.wt. given orally by gelatin capsule. Four male Beagle dogs, each implanted with a TL1IM2-D70-PCT transmitter (Data Sciences International, USA), were used for the study. During the study, the dogs were administered 4 oral treatments representing placebo and all test substance treatment groups with a three day (˜72 hour) wash-out period between each administration, using a Latin square cross-over design.
On dosing days, the telemetered dogs were observed once before commencement of data collection, continuously through 2 hours post-dose remotely and ˜8 hours post-dose for changes in behaviour. Cardiovascular parameters (systolic, diastolic and mean blood pressure, pulse pressure and heart rate) were recorded continuously for ˜60 minutes before dosing and up to 24 hours after dosing. Systolic, diastolic and mean blood pressures, pulse pressure and heart rate were obtained from the femoral artery waveform. Electrocardiograms were recorded continuously for ˜60 minutes before dosing and up to 24 hours after dosing. Electrocardiograms were obtained from subcutaneously placed bio-potential leads in a Lead II configuration. Heart rate and QT intervals were determined from the ECG's.

Series [4] is described as follows: Functional observational battery (FOB). The class given is in vivo, Wistar rats. On the procedure:
The study was conducted in accordance with “S7A Safety Pharmacology Studies for Human Pharmaceuticals, ICH” July 2001, and as per this study protocol. […] Rats that had been fasted for 16 to 18 hours (access to water was not interrupted) were dosed with the compound or water. The rats were administered the compound in an aqueous formulation at three levels, 75, 125 and 250 mg/kg b.wt, as a single oral dose by gavage. The control group received water. The rats were subjected to the FOB 60-120 min. after drug administration.
Animals were subjected to the FOB one at a time except for the multiple activity cage where four animals were placed in four different cages simultaneously. Once complete, the animals were returned to their home cage and the cage placed back on the stand.
The FOB can be employed to assess multiple neurobiological domains including neuromuscular (weakness, in coordination, gait and tremor), sensory (audition, vision and somatosensory), and autonomic (pupil response and salivation) functions. The measures of a neuro behavioral screening battery have been divided into specific functional domains. For example, Lacrimation, salivation, pupil response, palpebral closure, defecation and urination are measures of some aspects of the autonomic system. Similarly the neuro muscular domain can be assessed based on the gait/mobility score, landing foot splay, grip strength and righting reflex; sensorimotor domain based on response to tail pinch and click/touch/approach response; CNS excitability domain based on ease of removal and handling of the animal, clonic/tonic movements, arousal and vocalization; CNS activity domain based on home cage posture, palpebral closure, rearing and motor activity and finally the physiological domain is assessed based on the body weight, body temperature and piloerection.

A short description of series [5]: Acute oral toxicity (MTD) in Wistar rats. It counts as in vivo.
Series [6] in a line: 30 day repeated dose toxicity in beagle dogs. It counts as in vivo. On the procedure:
The methods followed were as per CPMP/SWP/1042/99 (July 2000) and ICH S3A (March (1995)) guidelines. Prior to the 30 day repeated dose study, a dose range finding study was conducted, which included single dose MTD study followed by a 10 day repeated dose study. […]. The route of dosing was oral, by gelatin capsule. Based on the results of the dose range finding study, doses for the 30 days study were selected.
The 30 day repeated dose study employed 12 male and 12 female dogs (Marshall's Farm, China). The dogs were acclimatized for a minimum period of 2 weeks and randomly divided into four main groups (G1-G4), each group comprising of 3 dogs per sex. The animals were dosed orally with capsules of NRC-2694A for a period of 30 consecutive days at dose levels of 10 mg/kg b.wt/day (G2-low dose), 20 mg/kg b.wt/day (G3-mid dose) and 40 mg/kg b.wt/day (G4-high dose). […]. The control group (G1-0 mg/kg b. wt/day) animals were dosed by oral capsule with placebo.
The study also tracked body weight (weekly), food consumption (daily), opthalmological status (start and end), hematological and biochemical analyses (start and end), toxicokinetics analysis of plasma (start and end). […]

Series [7] deals with T1, PIP5K2B (Homo sapiens, UniProt P78356).
T1 construct: purchased Ambit Biosciences Corp (KinomeScan); host or cells: E. coli host derived from BL21, infected with T7 phage
T1 sequence (P78356 whole entry): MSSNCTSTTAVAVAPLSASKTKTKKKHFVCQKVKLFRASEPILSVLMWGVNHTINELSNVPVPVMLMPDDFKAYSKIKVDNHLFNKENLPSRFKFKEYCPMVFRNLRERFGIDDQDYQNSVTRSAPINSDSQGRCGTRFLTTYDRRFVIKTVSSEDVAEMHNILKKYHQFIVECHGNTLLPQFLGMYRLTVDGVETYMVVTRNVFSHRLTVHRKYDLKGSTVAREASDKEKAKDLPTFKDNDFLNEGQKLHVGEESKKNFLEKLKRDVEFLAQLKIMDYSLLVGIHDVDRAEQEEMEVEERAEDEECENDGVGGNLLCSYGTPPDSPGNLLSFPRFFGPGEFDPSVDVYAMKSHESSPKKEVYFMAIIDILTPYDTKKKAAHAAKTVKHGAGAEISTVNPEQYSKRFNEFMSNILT
Kind of series: KinomeScan kinase profiling. The class given is binding.

For `C#Cc1cccc(Nc2ncnc3cc(OC)c(OCCCN4CCOCC4)cc23)c1.Cl` [NRC-2694 monohydrochloride, N-(3-ethylnylphenyl)-7-methoxy-6-[3-(4-morpholinyl)propoxy]-4-quinazolinamine mono hydrochloride], the “mutagenicity in the Ames test” value in series [1] is “non-mutagenic”. In addition, in series [2], the “respiratory parameters: respiratory rate, tidal volume, minute volume, and Penh” value was “did not influence any of the observed parameters”. In series [3] (cardiovascular parameters, male Beagle dogs, oral), the “no observed effect level” value is given as 60 mg/kg b.wt. In addition, the “cardiovascular parameters (blood pressure, pulse pressure, heart rate, QT and QTcf intervals)” value in series [3] is “no significant negative effects”. Moreover, the “adverse effects in the functional observational battery” value in series [4] (Wistar rats, 75, 125 and 250 mg/kg b.wt single oral dose) is listed as “did not show any adverse effects”. In addition, the “influence on the parameters of the FOB” value in series [4] (Wistar rats, 75, 125 and 250 mg/kg b.wt, 60-120 minutes post treatment) was “no influence on any of the parameters”. Further, the “maximum tolerated dose (MTD)” value in series [5] (acute oral gavage, Wistar rats) was found to be 1000 mg/kg body weight. Also, the gross pathological examination result in series [5] (rats) is reported as “did not reveal any lesions of pathological significance, except minimal uterus distension in two female rats”. In series [5] (rats, G4 1000 mg/kg body wt.), the “chromodacryoorhea, incidence” value is on record as 10/10; the “mild to severe lethargy, incidence” value is given as 10/10; the “piloerection, incidence” value is given as 10/10; the “ptosis, incidence” value is reported as 4/10. Besides, the “weakness, incidence” value in series [5] (rats, G4 1000 mg/kg body wt.) is 1/10. For the same compound, the “body weight and percent body weight change” value in series [5] (rats, mid and high dose, days 7 and 14) was “Statistically significant reduction”. Also, in series [5] (rats, oral gavage, 1000 mg/kg body weight (high dose)), the toxic signs result was “marked toxic signs with reduction in body weight but devoid of any pathological lesions and mortality”. For the same compound, in series [5] (rats, oral gavage, 250 (low dose) and 500 mg/kg body weight (mid dose)), the “major toxic signs or mortality” value is “did not produce any major toxic signs or mortality”. In addition, the mortality entry in series [5] (rats, oral, 250, 500 and 1000 mg/kg) is “No mortality”. The “no observed adverse effect level (NOAEL)” value in series [6] (beagle dogs, 30 days, orally by capsule) stood at 10 mg/kg b.wt/day. For the same compound, the symptoms of toxicity entry in series [6] (dogs, low dose (G2) 10 mg/kg b.wt/day, 30 days) is recorded as “No symptoms of toxicity”.

`C#Cc1cccc(Nc2ncnc3cc(OC)c(OCCCN4CCOCC4)cc23)c1` [NRC-2694, N-(3-ethylnylphenyl)-7-methoxy-6-[3-(4-morpholinyl)propoxy]-4-quinazolinamine]: in series [1], the “mutagenicity in the Ames test” value is recorded as “not mutagenic”. The “induction of His revertant colonies” value in series [1] (0.0125-1.2500 mg/plate) is “lack of statistically significant induction”. Further, the “respiratory parameters: respiratory rate, tidal volume, minute volume, and Penh” value in series [2] was “lacks toxicity against respiratory function”. For the same compound, in series [3], the “cardiovascular parameters (blood pressure, pulse pressure, heart rate, QT and QTcf intervals)” value is on record as “lacks toxicity against cardiovascular function”. The “neurotoxicity toward the central and peripheral nervous system” value in series [4] (Wistar rats, FOB) is recorded as “no evidence of neurotoxicity”. The “MTD, mice compared with rats” value in series [5] (rat, in vivo) is “the same in mice and rats”. Further, the “toxicity compared with Erlotinib” value in series [6] (beagle dogs) is on record as “significantly less toxic than Erlotinib HCl”. In addition, the “% Ctrl @ 10000 nM” value in series [7] was 49 % Ctrl.
